Source: US20120157401A1, “METHODS FOR TREATING NEUROFIBROMATOSIS” (PTC Therapeutics, Inc., priority 2009, published 2012)

Assays:
[1] = Micronucleus study in rats by the oral route; assay type: in vivo
Method: Genotoxicity was assessed in a battery of in vitro and in vivo studies that included a bacterial reverse mutation study, a chromosome aberration study in Chinese hamster ovary (CHO) cells, and a micronucleus study in rats by the oral route. The in vitro studies were performed in the presence and absence of an exogenous metabolic activation system.

[2] = tested on: soluble VEGF121 and VEGF165 isoforms; assay: VEGF inhibition EC50 by ELISA in the same human tumor cell lines (Table 25); assay type: cell-based
Method: Results. […] The conditioned media were collected and assayed by ELISA for soluble VEGF121 and VEGF165 isoforms (as described in Section 9.1.1.1); results were calculated as percentage inhibition relative to vehicle treated controls. EC50 values were calculated from the concentration response curves.

[3] = tested on: HT1080 cells; assay: Kinetics of S-phase transit by BrdU incorporation in HT1080 cells; assay type: cell-based, human
Method: Experimental Design. HT 1080 cells are exposed to BrdU (bromodeoxyuridine, a synthetic nucleoside that is an analogue of thymidine and is incorporated into DNA during the S phase of cell division) (FITC BrdU Flow Kit, BD Pharmingen catalog #552598). Cells are grown and treated as described in Section 9.3.1.3 above with the exception that one hour prior to harvesting by trypsinization, BrdU (final concentration 1 μM) is added to each culture for 1 hour. Cells actively replicating DNA during this brief time incorporate the BrdU into the DNA, which can then be quantitated. BrdU content is quantitated with using the FITC BrdU Flow Kit as instructed by the manufacturer. The process includes fixation (paraformaldehyde) and DNA staining with 7-AAD (7-amino-actinomycin D) followed by incubation with a fluoro-tagged anti-BrdU antibody that specifically recognizes BrdU incorporated into DNA. Dual channel FACS analysis permits assessment of both the DNA content of individual cells and the rate of transit across the S-phase, which is assessed based upon BrdU incorporation over the one hour treatment period.

[4] = tested on: SKNEP orthotopic xenografts; assay: Orthotopic SKNEP Ewing sarcoma tumor model (kidney capsule): tumor weight; assay type: in vivo, athymic nude mice; conditions: 5 weeks of treatment
Text: (§1) Experimental Design. In orthotopic tumor models, human tumor cells are implanted into the mouse in an organ that corresponds to the location from which the tumors arise. Such models may provide a better predictor of clinical efficacy than injection of tumors into the flanks of nude mice. See Hoffman, Invest. New Drugs 1999, 17(4):343-59. SY5Y neuroblastoma or SKNEP Ewing sarcoma tumor cells (1×10^6 cells/mouse) were implanted into the kidney capsule of female athymic nude mice according to published methods. See Huang et al., Proc. Natl. Acad. Sci. USA 2003, 100(13):7785-90. One week after implantation of each type of tumor, mice were divided into 2 groups and were administered a test Compound as shown in Table 21.
(§2) After 5 weeks of treatment, the mice were sacrificed, and the weights of the tumors were assessed.

[5] = tested on: VEGF189 and VEGF206 isoforms; assay: In-Cell Western / Western blot of matrix associated VEGF189/206 production in HT1080 cells; assay type: cell-based, human; conditions: HT1080, normoxic, 48 hours
Method: Experimental Design. HT1080 (human fibrosacoma) cell cultures were established under normoxic conditions (21% oxygen). HT1080 cells constitutively overproduce VEGF even under normoxic conditions. […] At the completion of treatment, the cells were washed and harvested. Cells were incubated with a primary antibody that recognizes the VEGF189 and VEGF206 isoforms. Infrared-dye labeled antibodies were applied secondarily, and the amounts of VEGF189 and VEGF206 were determined using the IN-CELL WESTERN® assay and ODYSSEY® infrared imaging system (Li-Cor, Lincoln, Nebr., USA); results are expressed as percentage inhibition relative to vehicle treated controls. Conventional Western blotting using the same primary antibody was also performed to confirm the presence of the matrix associated isoforms; for these experiments actin was used as a loading control. Actin is a ubiquitous housekeeping protein that is not known to be post transcriptionally regulated.

[6] = tested on: HT1080 cells; assay: HT1080 spheroid cell viability and mobility (migration after re-plating); assay type: cell-based, human
Method: Experimental Design. […] Pictures were then taken 48 hours to assess the migration and proliferation of the cells across the well's surface.

[7] = tested on: tumor VEGF; assay: Tumor VEGF content ELISA in microvessel density study, HT1080 xenografts; assay type: in vivo, human; conditions: racemic mixture, 5 mg/kg of Compound #10 oral BID, 10 days
Method: Experimental Design. HT1080 cells (5×10^6 cells/mouse) were implanted subcutaneously in male athymic nude mice.
At the end of treatment, the mice were sacrificed. Excised tumors were assayed by ELISA for VEGF content as described in Section 9.1.1.1, and were sectioned and immunostained with an anti murine CD31 antibody that is specific for endothelial cells.

[8] = Functional observation battery, 7 days oral gavage; assay type: in vivo, Sprague Dawley rats; conditions: 40, 120, and 400 mg/kg daily for 7-days
[9] = tested on: soluble VEGF121 and VEGF165 isoforms; assay: ELISA of soluble VEGF121/165 production in HeLa cells during hypoxia or normoxia; assay type: cell-based, human; conditions: 48 hours
Method: Experimental Design. HeLa (human cervical carcinoma) cell cultures were established under normoxic conditions (21% oxygen). HeLa cells increase VEGF production 4- to 5-fold in response to hypoxia. […] At the completion of treatment, the conditioned media were collected and the VEGF protein levels were assayed in an enzyme-linked immunosorbent assay (ELISA) with primary antibodies that recognize the soluble VEGF121 and VEGF165 isoforms (R & D Systems, Minneapolis, Minn., USA). To ensure that decreases in VEGF concentration were not due to cytotoxicity, cultures were assayed using a standard assay ([…]-GLO® Luminescent Cell Viability Assay; Promega, Madison, Wis., USA) that measures total cellular adenosine triphosphate (ATP) concentrations as an indicator of cell viability.

[10] = Oral toxicokinetics in dogs; assay type: in vivo, beagle dogs
Method: The pharmacokinetic evaluations in mice were adjuncts to the primary pharmacodynamic xenograft studies. The evaluations in rats included toxicokinetic assessments in single-dose, 7-day, and 28-day toxicology studies as well as a mass-balance study after a single oral dose of ^14C-Compound #10. The evaluations in dogs included toxicokinetic assessments in 7-day and 28-day toxicology studies. In the studies performed, rodents were dosed once daily with Compound #10 formulated in vehicle and administered via oral gavage.

[11] = tested on: SY5Y orthotopic xenografts; assay: Orthotopic SY5Y neuroblastoma tumor model (kidney capsule): tumor weight; assay type: in vivo
Text: as §1, §2

For `COc1ccc(C2c3[nH]c4ccc(Cl)cc4c3CCN2C(=O)Oc2ccc(Cl)cc2)cc1` (racemic) [Compound #10], the “Genotoxic effects, micronucleus in rats” value [1] was “no evidence of genotoxic effects”, the EC50 ([2]; Homo sapiens, ASPC1, ASPC-1 (Pancreas), 48 hours) was > 30000 nM and the EC50 ([2]; Homo sapiens, HCT-116, HCT116 (Colorectal), 48 hours) was 10 nM. For the same compound, the EC50 ([2]; Homo sapiens, HT-1080, HT1080 (Fibrosarcoma), 48 hours) was 10 nM, the EC50 ([2]; Homo sapiens, PL45, PL-45, 48 hours) was > 30000 nM and the EC50 ([2]; Homo sapiens, HEK293 (Renal cell), 48 hours) was 10 nM. For the same compound, the EC50 ([2]; Homo sapiens, HPAF-2, 48 hours) was > 30000 nM, the EC50 ([2]; Homo sapiens, HeLa (Cervical), 48 hours) was 2 nM and the EC50 ([2]; Homo sapiens, NCI H460 (Lung), 48 hours) was 10 nM. For the same compound, the EC50 ([2]; Homo sapiens, U-87MG (Glioblastoma), 48 hours) was > 30000 nM, the EC50 ([2]; PC-3, 48 hours) was > 30000 nM and the “Percentage of cells residing in S-phase” value ([3]; HT1080, 18-hour treatment, increasing doses) was “net increase”. For the same compound, the “BrdU incorporation of individual cells vs DMSO control” value ([3]; HT1080, one-hour BrdU pulse after 18-hour treatment) was “incorporated less BrdU”, the “Growth of orthotopic SKNEP tumors (tumor weight)” value [4] was “completely prevented growth” and the “Inhibition of VEGF189 and VEGF206 isoforms” value [5] was “potent concentration-dependent inhibition”. The “Proliferative and migratory capacity after three-week exposure, re-plated in the absence of compound” value ([6]; 50 nM for 3 weeks) was “does not reduce either the proliferative or the migratory capacity”, the “Migration of cells out of control spheroids re-plated in the presence of compound” value ([6]; 50 nM, 48 hours) was “blocked in their ability to migrate out of the spheroid” and the “Mean inhibition of tumor VEGF concentration” value [7] was 95%. For the same compound, the “Behavioral or neurological effects” value [8] was “no adverse behavioral or neurological effects”, the “Inhibition of stress-induced VEGF production (FIG. 25)” value ([9]; hypoxia-induced) was “inhibit stress-induced VEGF production” and the “Maximal decrease in VEGF concentration in conditioned media” value ([9]; hypoxic (1% oxygen)) was 87%. For the same compound, the “Mean VEGF concentration in conditioned media at maximal decrease” value ([9]; hypoxic (1% oxygen)) was 175 pg/mL, the “Decrease in VEGF concentration in conditioned media” value ([9]; normoxic) was 39% and the “Mean VEGF concentration in conditioned media in the presence of compound” value ([9]; normoxic) was 157 pg/mL. For the same compound, the Oral bioavailability [10] was “orally bioavailable”, the “Growth of orthotopic SY5Y tumors (tumor weight)” value ([11]; 5 weeks of treatment) was “completely prevented growth” and the “Toxicity on observing the animals” value ([11]; orthotopic SKNEP and SY5Y mice) was “no evidence of toxicity”.
